The values that follow come from article PMC10299727, “Identification and Isolation of α-Glucosidase Inhibitors from Siraitia grosvenorii Roots Using Bio-Affinity Ultrafiltration and Comprehensive Chromatography” (International Journal of Molecular Sciences, 2023).

One may read the inhibition as the relative decrease from the control value, in per cent. Lower therefore signals a weak effect. One may read the IC50 as the concentration at which inhibition is half-maximal.

Test [1] has as its target T1, α-glucosidase (Saccharomyces cerevisiae, UniProt P53341).
T1 construct: purchased Sigma-Aldrich (Shanghai, China) G5003-100UN
The test is described as follows: α-glucosidase inhibitory assay (pNPG substrate, absorbance at 405 nm). Format: biochemical. As for the experimental part: The α-glucosidase inhibitory activity of the S. grosvenorii root extracts was determined using a method mentioned previously, with some modifications to it. Briefly, the sample was dissolved in PBS containing 10% dimethyl sulfoxide. A mixture of the tested sample (50 μL, different concentrations) and α-glucosidase (20 μL, 0.2 U/mL) was placed in a 96-well microplate and incubated at 37 °C for 5 min. Next, 20 μL pNPG (1 mM) was added, and the mixture was further reacted for 30 min at 37 °C and terminated through the addition of […] solution (50 μL, […]). The percentage inhibition of α-glucosidase was determined by measuring the absorbance of the mixture at 405 nm and calculated by Equation (1):Inhibition (%) = [1 − (Ainhibitor − Ablank inhibitor)/(Acontrol − Acontrol blank)] × 100(1) where Ainhibitor, Ablank inhibitor, Acontrol, Acontrol blank are the absorbance values of the potential inhibitor and α-glucosidase, only the potential inhibitor without α-glucosidase, only α-glucosidase, and PBS buffer, respectively.

Test [2] has as its target T1, α-glucosidase. The test is described as follows: Affinity ultrafiltration coupled with HPLC (UF-HPLC), specific binding factor. The note with it: peaks of SGR2 (10 mg/mL) incubated with α-glucosidase; active vs denatured enzyme. On the procedure:
Affinity UF was performed as previously described, with slight modifications. Briefly, a PBS solution of SGR2 (10 mg/mL, 800 μL) was mixed with α-glucosidase (1 U/mL, 400 μL) and incubated at 37 °C for 45 min. Next, the mixture was centrifuged at 10,000 rpm for 10 min using a UF membrane with a 10 kDa molecular weight cutoff, to collect the active component and α-glucosidase complexes. The complexes were washed 3 times with 600 μL of PBS (0.1 M, pH 7.2) to remove unbound compounds. A solution of 70% methanol (200 μL) was added to the residue and incubated at 4 °C for 20 min to release the bound compounds. Then, the solution was collected and concentrated to a dry state. Subsequently, the dry residue was further dissolved with 0.2 mL methanol and subjected to HPLC analysis. As a negative control, α-glucosidase was inactivated at 100 °C in a water bath for 10 min. […] The specific binding factors were calculated according to Equation (2):Specific binding factor (%) = (Aa − Ab)/Ac × 100%(2) where, Aa is the peak area of the experiment with active α-glucosidase, Ab is the peak area of the control group with denatured α-glucosidase, and Ac is the peak area of the extract.

“And” between values parts separate entries of the source, which are not always exact repeats. Equal values may be shown once. Read-outs that look alike come from different tables or passages of the source.

T1 sequence (P53341 whole entry): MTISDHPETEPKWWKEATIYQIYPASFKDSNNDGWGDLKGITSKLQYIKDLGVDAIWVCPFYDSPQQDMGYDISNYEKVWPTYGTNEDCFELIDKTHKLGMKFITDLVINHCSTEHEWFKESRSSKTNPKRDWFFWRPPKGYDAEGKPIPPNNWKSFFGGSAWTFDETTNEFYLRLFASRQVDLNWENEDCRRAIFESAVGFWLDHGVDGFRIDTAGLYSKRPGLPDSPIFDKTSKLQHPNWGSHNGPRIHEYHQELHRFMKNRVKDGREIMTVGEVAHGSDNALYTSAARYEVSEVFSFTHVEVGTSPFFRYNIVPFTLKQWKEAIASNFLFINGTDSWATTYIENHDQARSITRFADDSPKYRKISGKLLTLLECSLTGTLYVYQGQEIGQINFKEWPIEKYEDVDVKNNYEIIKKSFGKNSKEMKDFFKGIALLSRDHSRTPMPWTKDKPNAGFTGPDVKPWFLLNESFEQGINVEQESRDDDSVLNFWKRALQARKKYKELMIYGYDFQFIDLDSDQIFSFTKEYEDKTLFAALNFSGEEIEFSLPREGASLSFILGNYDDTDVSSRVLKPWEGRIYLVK

`CC(=CCCC(C)C1CCC2(C)C3CCC4=C(C)C(=O)CCC4C3(C)C(=O)CC12C)C(=O)OC1OC(COC2OC(CO)C(O)C(O)C2O)C(O)C(O)C1O` (centres unmarked) [Compound 9, Siraitic acid II G]: the inhibition at 1000 µg/mL against α-glucosidase [1] is 53.1 ± 0.99%. The IC50 on α-glucosidase [1] (read-out: IC50) stood at 1.581 ± 0.0125 mM. The “Specific Binding Factors Mean ± SD (n = 3)” value at α-glucosidase [2] worked out at 5.33 ± 2.11%.
On α-glucosidase [1], `C/C(=C\CCC(C)C1CCC2(C)C3CC=C4C(CCC(OC5OC(COC6OC(CO)C(O)C(O)C6O)C(O)C(O)C5O)C4(C)C)C3(C)C(=O)CC12C)C(=O)OC1OC(COC2OC(CO)C(O)C(O)C2O)C(O)C(O)C1O` (centres unmarked) [Compound 8, Siraitic acid IV H] had an inhibition at 1000 µg/mL of 23.4 ± 1.05%. Also, the “Specific Binding Factors Mean ± SD (n = 3)” value at α-glucosidase [2] is on record as 0.27 ± 0.18%.
On α-glucosidase [1], `C/C(=C\CCC(C)C1CCC2(C)C3CCC45OCC3(C(=O)CC12C)C4CCC(O)C5C)C(=O)OC1OC(COC2OC(CO)C(O)C(O)C2O)C(O)C(O)C1O` (centres unmarked) [Compound 11, Siraitic acid II A] showed an inhibition at 1000 µg/mL of 50.6 ± 1.23%. Moreover, the IC50 on α-glucosidase [1] (read-out: IC50) was determined as 1.24 ± 0.0205 mM. Further, the “Specific Binding Factors Mean ± SD (n = 3)” value at α-glucosidase [2] was 6.59 ± 0.91%.
In turn, `CC1=C2CCC3C(C)(C(=O)CC4(C)C(C(C)CC/C=C(\C)C(=O)OC5OC(CO)C(O)C(O)C5O)C(OC5OC(CO)C(O)C(O)C5O)CC34C)C2CCC1=O` (centres unmarked) [Compound 6, Siraitic acid IIb E] registered an inhibition at 1000 µg/mL at α-glucosidase [1] of 42.4 ± 0.81%. In addition, the “Specific Binding Factors Mean ± SD (n = 3)” value at α-glucosidase [2] turned out to be 3.91 ± 0.17%.
Turning to Cucurbitacin B [Compound 15], the “Inhibition (%)” value at α-glucosidase [1] (concentration of 1.0 mg/mL compound) came to 50.59 ± 0.98%. In addition, at α-glucosidase [2], the “Specific Binding Factors Mean ± SD (n = 3)” value is 7.98% and 7.98 ± 1.11%.
In the case of `C/C(=C\CCC(C)C1CCC2(C)C3CCC45OCC3(C(=O)CC12C)C4CCC(=O)C5C)C(=O)OC1OC(COC2OC(CO)C(O)C(O)C2O)C(O)C(O)C1O` (centres unmarked) [Compound 12, Siraitic acid II B], on α-glucosidase [1], 1000 µg/mL produced 51.3 ± 0.83% inhibition. In addition, the IC50 on α-glucosidase [1] (read-out: IC50) is 1.03 ± 0.0369 mM. For the same molecule, the “Specific Binding Factors Mean ± SD (n = 3)” value at α-glucosidase [2] is 6.65 ± 1.18%.
For `CC1=C2CCC3C(C)(C(=O)CC4(C)C(C(C)CC/C=C(\C)C(=O)OC5OC(COC6OC(CO)C(O)C(O)C6O)C(O)C(O)C5O)C(OC5OC(CO)C(O)C(O)C5O)CC34C)C2CCC1=O` (centres unmarked) [Compound 4, Siraitic acid III E], testing at 1000 µg/mL against α-glucosidase [1] gave an inhibition of 36.74 ± 0.36%. Moreover, on α-glucosidase [2], the “Specific Binding Factors Mean ± SD (n = 3)” value is given as 2.93 ± 0.72%.
As to `CC(=CCCC(C)C1CCC2(C)C3CCC4=C(C)C(=O)CCC4C3C(=O)CC12C)C(=O)OC1OC(COC2OC(CO)C(O)C(O)C2O)C(O)C(O)C1O` (centres unmarked) [Compound 14, Siraitic acid II C], on α-glucosidase [1], at 1000 µg/mL the inhibition was 72 ± 2.18%. Moreover, the IC50 on α-glucosidase [1] (read-out: IC50) amounted to 0.43 ± 0.0133 mM. Further, at α-glucosidase [2], the “Specific Binding Factors Mean ± SD (n = 3)” value is 17.26% and 17.26 ± 3.14%.
`CC(=O)OC(C)(C)CCC(=O)[C@](C)(O)C1[C@H](O)C[C@@]2(C)[C@@H]3CC=C4[C@@H](CC(O)[C@@H](O)C4(C)C)[C@]3(C)C(=O)C[C@]12C` (some centres unmarked) [Compound 13, 23,24-dihydrocucurbitacin F-25-acetate] yielded an inhibition at 1000 µg/mL against α-glucosidase [1] of 21.7 ± 0.58%. In addition, on α-glucosidase [2], the “Specific Binding Factors Mean ± SD (n = 3)” value was 1.31 ± 0.06%.
Take `CC(=CCCC(C)C1C(O)CC2(C)C3CCC4=C(C)C(=O)CCC4C3C(=O)CC12C)C(=O)OC1OC(COC2OC(CO)C(O)C(O)C2O)C(O)C(O)C1O` (centres unmarked) [Compound 7, Siraitic acid II E]: the inhibition at 1000 µg/mL at α-glucosidase [1] came to 58.5 ± 1.19%. Moreover, at α-glucosidase [1] (read-out: IC50), the IC50 was found to be 1.207 ± 0.00549 mM. Moreover, the “Specific Binding Factors Mean ± SD (n = 3)” value at α-glucosidase [2] was found to be 3.46 ± 1.03%.
As to `CC(=O)OC(C)(C)CCC(=O)[C@](C)(O)[C@H]1[C@H](O)C[C@@]2(C)[C@@H]3CC=C4[C@@H](C[C@H](O)C(=O)C4(C)C)[C@]3(C)C(=O)C[C@]12C` [Compound 16, 23,24-dihydrocucurbitacin B], at α-glucosidase [1], 1000 µg/mL produced 27.5 ± 3.8% inhibition. For the same molecule, the “Specific Binding Factors Mean ± SD (n = 3)” value at α-glucosidase [2] turned out to be 4.70 ± 0.76%.
Turning to `COc1cc(C[C@@H]2CO[C@@H](c3ccc(O)c(OC)c3)[C@@H]2CO)ccc1O` [Compound 1, (-)-lariciresinol], on α-glucosidase [1], it took 1.83 ± 0.0313 mM to reach half-maximal inhibition (IC50) and the inhibition at 1000 µg/mL was 78.2 ± 1.54%. The “Specific Binding Factors Mean ± SD (n = 3)” value at α-glucosidase [2] was found to be 4.97 ± 0.15%.
Molecule `COc1cc([C@@H]2Oc3c(OC)cc(/C=C/CO)cc3[C@H]2CO)ccc1O` [Compound 2, 3,4′-dimethoxy-4,9,9′-trihydroxy-benzofuranolignan-7′-ene] displayed an inhibition at 1000 µg/mL against α-glucosidase [1] of 63.43 ± 0.23%. Also, the half-maximal inhibitory concentration (IC50) on α-glucosidase [1] (read-out: IC50) was 2.275 ± 0.0138 mM. Further, at α-glucosidase [2], the “Specific Binding Factors Mean ± SD (n = 3)” value was determined as 1.87 ± 0.77%.
Turning to `CC(=O)OC(C)(C)CCC(=O)[C@](C)(O)C1C(O)C[C@@]2(C)[C@@H]3CC=C4[C@@H](CC(=O)[C@@H](O)C4(C)C)[C@]3(C)C(=O)C[C@]12C` (some centres unmarked) [Compound 17, Dihydroisocucurbitacin B-25-acetate], 1000 µg/mL produced 23.7 ± 0.33% inhibition at α-glucosidase [1]. In addition, the “Specific Binding Factors Mean ± SD (n = 3)” value on α-glucosidase [2] is reported as 2.28 ± 0.44%.
